Results from US8859502B2, “Therapy for MLL-rearranged leukemia” (Celgene Corporation, priority 2010, dated 2014).

How the values were obtained:
RS4;11 cell line = test: Proto-oncogene mRNA expression by quantitative real-time PCR after exposure to HDAC inhibitors, RS4;11; type: cell-based, human; conditions: RS4;11, mRNA by quantitative real-time PCR
Experimental: (§1) FIGS. 8A, 8B, 8C, 8D, 8E, 8F and 8G show relative proto-oncogene mRNA expression after exposure to HDAC inhibitors in SEM cell line. FIGS. 8AA, 8BB, 8CC, 8DD, 8EE, 8FF and 8GG show relative proto-oncogene mRNA expression after exposure to HDAC inhibitors in RS4;11 cell line. mRNA expression levels of the proto-oncogenes A. RAN, B. SET, C. […] For RUNX1, PARK7, DIAPH1 and HOXA9 data after 24 hours exposure are presented as well (hatch fill). Expression levels in SEM or RS4;11 were set to 100%.
(§2) Total RNA was reverse transcribed and the obtained cDNA was used to quantify mRNA expression by using quantitative real-time PCR analysis as described in Stam et al., Haematologica 92(11):1565-1568, 2007). […] Per experiment, samples were analyzed in duplicate and all experiments were conducted twice. […]
(§3) To explore the mechanism of action of HDAC inhibitors on induced leukemic cell death in MLL-rearranged ALL, the t(4;11)-positive ALL cell lines SEM and RS4;11 were exposed to various concentrations of TSA, SAHA, VPA, MS-275 and romidepsin for 6, 24 or 48 hours. During these exposures, cell viability was monitored by trypan blue exclusion (FIG. 7). Quantitative real-time PCR was used to determine the mRNA expression levels of MYC, SET, RUNXI, RAN, HOXA9, DIAPHI and PARK7 in the cell lines SEM and RS4;11 during exposure to the different HDAC inhibitors. […]

SEM cell line = test: Proto-oncogene mRNA expression by quantitative real-time PCR after exposure to HDAC inhibitors, SEM; type: cell-based, human
Experimental: as §1, §2, §3

[1] = system: t(4;11)-positive ALL cells; type: cell-based, human; conditions: for therapeutic index and specificity towards t(4;11)-positive ALL cells: SEM, RS4;11, MLL-AF4 patient cells versus normal bone marrows, FIG. 6
Excerpt: VPA, D. romidepsin, E. MS-275. Error bars represent standard errors of the mean (SEM).

[2] = system: healthy hematopoietic bone marrow cells

| Compound | expression of the selected proto-oncogenes (RS4;11 cell line) | expression of the selected proto-oncogenes (SEM cell line) | therapeutic index and specificity towards t(4;11)-positive ALL cells [1] | in vitro cytotoxicity on the leukemic cell population [1] | effect on healthy hematopoietic bone marrow cells [2] |
| --- | --- | --- | --- | --- | --- |
| O=C(CCCCCCC(=O)Nc1ccccc1)NO [Vorinostat] | consistently repressed most of the selected proto-oncogenes | consistently repressed most of the selected proto-oncogenes | – | – | – |
| Nc1ccccc1NC(=O)c1ccc(CNC(=O)OCc2cccnc2)cc1 [MS-275] | – | – | high therapeutic index and a preferred specificity towards targeting t(4;11)-positive ALL cells | – | – |
| C/C=C1\NC(=O)[C@H]2CSSCC/C=C/[C@H](CC(=O)N[C@H](C(C)C)C(=O)N2)OC(=O)[C@H](C(C)C)NC1=O [romidepsin, (1S,4S,7Z,10S,16E,21R)-7-ethylidene-4,21-bis(1-methylethyl)-2-oxa-12,13-dithia-5,8,20,23-tetrazabicyclo[8.7.6]tricos-16-ene-3,6,9,19,22-pentone] | – | – | high therapeutic index and a preferred specificity towards targeting t(4;11)-positive ALL cells | – | – |
| CC(/C=C/C(=O)NO)=C\[C@@H](C)C(=O)c1ccc(N(C)C)cc1 [trichostatin A] | consistently repressed most of the selected proto-oncogenes | consistently repressed most of the selected proto-oncogenes | high therapeutic index and a preferred specificity towards targeting t(4;11)-positive ALL cells | consistent eradication of the entire leukemic cell population | harmless for healthy hematopoietic bone marrow cells |
